Measurements: patent US6117849A, “S-(+)-adenosylmethionine and 3'-azido-2', 3'-dideoxy-nucleoside complexes as potent inhibitors of HIV-replication” (Symbio Herborn Group GmbH & Co., priority 1996, dated 2000)
Values joined by “and” are separate entries in the source; they are usually repeats but may differ in a detail not shown here. Identical values can stand only once. Like-named read-outs stand apart in the source and are kept apart here.

How the values were obtained:
[1] = system: T-lymphocyte cell cultures; test: in vitro; conditions: for therapeutic index: in vitro, considering cytotoxicity
Protocol: (§1) Viability of the T cells was determined by means of a tetrazolium salt (MTT) metabolic assay.--(see also: Schwartz, O., et al., AIDS Rcs. Hum. Retroviruses, 4 441-448, 1988).

[2] = target: T1, reverse transcriptase (RT) (HIV-1 M:B_HXB2R, UniProt P04585); format: biochemical; design: A2: RT in cord-blood lymphocyte cultures infected with HIV from an AIDS patient; conditions: no DTT
[3] = target: T1, reverse transcriptase (RT); format: biochemical; design: A2: RT in cord-blood lymphocyte cultures infected with HIV from an AIDS patient; conditions: for Ki: RT
Protocol: The second in-vitro test uses the enzymatic activity of RT, testing the kinetic and inhibitory action of the molecular complexes. The cloning of the RT in biologically active form made it possible to have large quantities of the RT enzyme available for these studies (RT from Sigma, lot # R 9376).
The steady state reaction conditions for RT are chosen that approximate physiological conditions are met: pH 7.45 (37° C.), ionic strength of 150 mM, routinely a buffer was employed consisting of 50 mM TRIS-HCl, 100 mM KCl, 5 mM MgCl2, the addition of 10 μg/mL bovine serum albumin were included. […] The aforementioned precautions designed to avoid potential reduction of SAM in the presence of DTT are taken into accounts to preclude any distortions of the kinetic behavior of the RT enzyme in the presence of the various substrates e.g. as our molecular compounds. […] The enzyme concentrations of RT was approx. 20 nM, T-P (template-primer) […] and 25 μM of [^3 H]-dNTP (assay conditions are modified fro those of Mayunder et al., J. biol. Chem.,263, 15657, 1988). […] In case both parameters are effected to the same extent, then the inhibition is uncompetitive. In order to facilitate the difference between SAM kinetics and those for the molecular complexes we studied first SAM kinetics and subsequently the kinetics in the presence of the molecular complexes. […] Similar experiments have been carries out with dGTP.
The enzyme was assayed with 50 nM primer sites on poly (rA): oligo (dT), and variable concentrations of [^3 H] dTP as substrates in a reaction mixture as described above at pH 7.5 (37° C.).

in vitro = conditions: t-lymphocyte cultures
Protocol: as §1

[4] = target: T1, reverse transcriptase (RT); test: In vitro RT inhibition assay with F-dUP/F-dU or THF; format: biochemical; design: A2: RT in cord-blood lymphocyte cultures infected with HIV from an AIDS patient
[5] = in vivo; cited from earlier work
[6] = SAM and AZT levels in HIV-infected patients (plasma, CSF)
[7] = AZT; cited from earlier work
HIV-1 isolate of HIV IIB = test: HIV replication in de novo infected lymphocyte cultures, viral core protein p24 endpoint; format: cell-based, HIV-1 (in human peripheral blood lymphocytes)
Protocol: For this purpose, SAM has been tested in a dose response titration ranging from 1000 μg/mL to 10 μg/mL final concentrations for the ability to inhibit HIV replication in de novo infected cells. Endpoint in this assay was the quantitative determination of the concentration of the viral core protein p24 as described by Mueller et al. (Mueller, Ch., Moritz, R., Prigge, G., Weitzel, D., Kunze, R., Kage, A., Koettgen, E., Fresenius Z. Anal. Chem.,330, 352-353, 1988). […] The toxicity testing of cellular proliferation was performed according to J. Mosmann (J. Immunological Methods, 65, 55-63, 1983). […] All experiments were carried out in triplicate cultures, including those for the various concentrations of the molecular complexes tested.--The lymphocytes were infected with a standardized preparation of HIV-1 isolate of HIV IIB. The cells were sedimented by low speed centrifugation, the sediment resuspended in the assay buffer (standard), and the resuspended cells were inoculated by adjusting to the following conditions: 100 ng of viral core protein p24/mL and 3200 pg HIV RNA/mL, respectively. Normally 3×10^8 lymphocytes were suspended in 1 mL if the HIV inoculum, and incubated at 37° C. for 60 minutes. After washing the cells twice with 50 mL of culture medium the cells were resuspended at a concentration of 3×10^6 cells/mL in culture medium which contains 10 units/mL of human recombinant interleukin-2. 100 μL of this cell suspension were added to 100 μL of the pre-diluted solution of the compounds to be tested, without adding any salt or protein. The entire assay was cultivated in humidified atmosphere in the presence of 5% CO2 at 37° C. After the 4th day of infection the viral replication was determined in the lymphocyte cultures. The end point of the titration was the determination of the viral core protein p24 in the supernatant of each of the lymphocyte cultures. 150 μL of the supernatant were removed and transferred to a vial containing 50 μL/well SDS at a final concentration of 0.08% (w/w). The concentration of the synthesized p24 by the HIV infected cells was determined according to Mueller et al., using recombinant p24 as a standard for calibration.

[8] = target: T1, reverse transcriptase (RT); conditions: read-out: inhibiting concentration, 50% of RT activity; tosylate-bis-sulfate salt, with DTT; cited from earlier work
[9] = Stability / half-life in human plasma (chiral HPLC, fluorescence)
Description: In order to determine the stability of these complexes in physiological conditions, the half-life times of the compounds were estimated in human plasma after separation on a chiral column and using a HPLC apparatus applying, monitoring the fluorescence of both components at 310 nm (excitation at 278 nm) after complete separation of the two peaks.

[10] = system: mitochondrial DNA replication; conditions: vs AZT
[11] = Intracellular metabolism to the triphosphate; format: in vitro ADME
HIV = HIV replication in T-lymphocyte cell cultures (cytotoxic effect and p24 production); format: cell-based
[12] = rapidly dried in vacuo, water-free
IL-β, IL-2 = test: Cytokine biosynthesis after stimulation of lymphocytes; format: cell-based; conditions: after phytohemagglutination stimulation
[13] = system: human peripheral blood lymphocytes; test: Cell toxicity by proliferation test in lymphocyte cultures
Protocol: For this purpose, SAM has been tested in a dose response titration ranging from 1000 μg/mL to 10 μg/mL final concentrations for the ability to inhibit HIV replication in de novo infected cells. Endpoint in this assay was the quantitative determination of the concentration of the viral core protein p24 as described by Mueller et al. (Mueller, Ch., Moritz, R., Prigge, G., Weitzel, D., Kunze, R., Kage, A., Koettgen, E., Fresenius Z. Anal. Chem.,330, 352-353, 1988). […] The toxicity testing of cellular proliferation was performed according to J. Mosmann (J. Immunological Methods, 65, 55-63, 1983). […] All experiments were carried out in triplicate cultures, including those for the various concentrations of the molecular complexes tested.--The lymphocytes were infected with a standardized preparation of HIV-1 isolate of HIV IIB. The cells were sedimented by low speed centrifugation, the sediment resuspended in the assay buffer (standard), and the resuspended cells were inoculated by adjusting to the following conditions: 100 ng of viral core protein p24/mL and 3200 pg HIV RNA/mL, respectively. […] After the 4th day of infection the viral replication was determined in the lymphocyte cultures. […] The concentration of the synthesized p24 by the HIV infected cells was determined according to Mueller et al., using recombinant p24 as a standard for calibration.

bone marrow stem cells = conditions: vs AZT
[14] = no DTT, pH 7.45-7.5, 37° C., read-out: KM
[15] = 1 h, complex: 400 mg SAM equivalent 250 mg AZT
[16] = HIV replication, p24, standard conditions
[17] = addition of human serum albumin

3'-azido-2',3'-2'-fluorothymidine [F))/AZT (AZT (2']
therapeutic index [1]: 7.000 | kcat [2]: 0.0483 s⁻¹ | Ki ([3]; no DTT): 100 ± 10 nM | Km [3, 14]: 0.5 ± 0.01 µM

3'-azido-2',3'-dideoxyadennine [SAM/AZA]
therapeutic index [1]: 4.500 | kcat [2]: 0.0283 s⁻¹ | Ki ([3]; no DTT): 280 ± 20 nM | Km [3, 14]: 0.71 ± 0.02 µM

3'-azido-2',3'-dideoxyguanosine [SAM/AZG]
therapeutic index [1]: 5.700 | kcat [2]: 0.05 s⁻¹ | Ki ([3]; no DTT): 240 ± 10 nM | Km [3, 14]: 0.7 ± 0.02 µM

3'-azido-2',3'-dideoxyinosine [SAM/AZI]
kcat [2]: 0.035 s⁻¹ | Ki ([3]; no DTT): 130 ± 15 nM | Km ([3]; read-out: KM): 0.41 ± 0.03 µM

3'-azido-2',3'-dideoxyuridine [SAM/AZU]
kcat [2]: 0.035 s⁻¹ | Km ([3]; read-out: KM): 0.69 ± 0.015 µM

C[S+](CC[C@H](N)C(=O)O)C[C@H]1O[C@@H](n2cnc3c(N)ncnc32)[C@H](O)[C@@H]1O (single isomer, unassigned) [SAM C1]
selectivity ratio (in vitro): 2.1 | Km [3]: 0.53 ± 0.02 µM | kcat [3]: 0.317 s⁻¹ and 0.25 s⁻¹

c1ncc2c(n1)NCCN2 [5,6,7,8-tetrahydropteridine (THF), 5,6,7,8-tetrahydropteridine]
effect on inhibition of RT [4]: no significant inhibition of the RT

Cc1cn([C@H]2C[C@H](N=[N+]=[N-])[C@@H](CO)O2)c(=O)[nH]c1=O [AZT, 3'-azido-2',3'-deoxythymidine]
side effects upon prolonged administration [5]: peripheral neuropathological effects | toxicity at increased dose [5]: bone marrow toxicity | Cmax ([6]; human, plasma, 250 mg): 2500 ng/mL | kcat [3]: approx. 1.5 sect^-1 | plasma half-life [7]: 1 h | inhibition of HIV replication (HIV-1 isolate of HIV IIB; FIG. 1, p24): inhibited HIV replication in a dose dependent response

O=c1[nH]c(=O)n([C@H]2C[C@H](O)[C@@H](CO)O2)cc1F [F-dU]
effect on inhibition of RT [4]: no influence on the inhibition of RT

[3H]C12CNc3nc(N)[nH]c(=O)c3N1CN(c1ccc(C(=O)N[C@@H](CCC(=O)O)C(=O)O)cc1)C2 (stereo partly drawn) [N^5, N^10-methylene-6-[^3 H]-THF]
effect on inhibition of RT [4]: no significant inhibition of the RT

C[S+](CC[C@H](N)C(=O)O)C[C@H]1O[C@@H](n2cnc3c(N)ncnc32)[C@H](O)[C@@H]1O (stereo partly drawn) [SAM ts HSO4 H2 SO4]
selectivity ratio (in vitro): 2.4 | IC50 [8]: 250000 to 501000 nM | Km [3]: 0.51 ± 0.02 µM | kcat [3]: 0.333 s⁻¹ and 0.3 s⁻¹

Nc1ccn([C@H]2CC[C@@H](CO)O2)c(=O)n1 [ddC]
side effects upon prolonged administration [5]: peripheral neuropathological effects

(+)-SAM-3'-azido-2',3'-dideoxythymidine complex [SAM/AZT]
50% cytotoxicity ([1]; MTT, as mass concentration of complex): ~15.5 µg/mL | CC50 ([1]; read-out: 50% cytotoxicity, MTT): 250000 nM | half-life of SAM ([9]; from AZT-SAM complex): more than 10 h | half-life of SAM, average ([9]; from AZT-SAM complex): 12 h | half-life of AZT ([9]; from the complex, depends on load): 2 to 3 h | toxicity/inhibition of mitochondrial DNA replication [10]: less toxic as well as inhibitory to mitochondrial DNA replication | accumulation / conversion to triphosphate [11]: does not accumulate, but being readily converted to the triphosphate derivative | maximum inhibition (HIV; inhibition of the cytotoxic effect): 100% | IC50 (HIV; p24 production, read-out: IC50, inhibition of p24 production): 10 nM | AZT level (almost 50% of that in plasma) [6, 15]: 0.25 µg/mL | SAM level [6, 15]: 600 ng/mL | pharmacokinetic behaviour ([6]; HIV patients): lower elimination rate for SAM | dose reduction of AZT ([6]; administered as complex with SAM): approx. 30% | increase of SAM and AZT levels in CSF and plasma ([6]; approved dose 250 mg AZT at 4 h intervals): 25-30% | AZT level in plasma ([6]; complex: 400 mg SAM equivalent 250 mg AZT): 0.543 µg/mL | hygroscopicity [12]: hygroscopic | cytokine biosynthesis (IL-β, IL-2) (IL-β, IL-2): enhanced significantly | inhibitory constant Ki(1), at 50% inhibition (HIV-1 isolate of HIV IIB; [16]): ≈ 0.9 ng/mL | inhibitory constant Ki(2), at 50% inhibition (HIV-1 isolate of HIV IIB; [16]): ≈ 12.5 μg/mL | Ki (first, low) (HIV-1 isolate of HIV IIB; [17]): 0.0005 to 0.0008 µg/mL | Ki (second, high) (HIV-1 isolate of HIV IIB; [17]): ~10 µg/mL | Ki (first, low) (HIV-1 isolate of HIV IIB; ionic strength 0.075 M): 0.0006 to 0.0008 µg/mL | Ki (second, high) (HIV-1 isolate of HIV IIB; ionic strength 0.075 M): 8 to 10 µg/mL | increase of the cell toxicity ([13]; SAM-AZT complex compared with SAM alone): approx. 35% | cell toxicity with respect to AZT alone ([13]; vs AZT alone): considerable of reduction of cell toxicity | toxicity for bone marrow stem cells (bone marrow stem cells): less toxic than AZT
